Assay results from patent US11492346B2, “Benzisoxazole sulfonamide derivatives” (Pfizer Inc., priority 2019, dated 2022).
pIC50, pKi: −log10 of the molar value.

Tests used:
[1] = test system: histone H3K23 acetylation in U2OS cells; experiment: Histone H3 Lysine 23 Acetylation Biomarker Assay; format: cell-based; conditions: Homo sapiens, 24 hours incubation
Method: Compounds were tested for their ability to inhibit acetylation of the histone H3K23 marker in the following assay:
The cell line U2OS was seeded at a density of 9,000 cells per well in 96 well optical quality tissue culture plates in RPMI medium and 10% foetal bovine serum, and allowed to adhere for 24 hours under standard culture conditions (37 degree Celsius, 5% CO2). At the end of this period the medium was aspirated. […] After incubation for 24 hours, the cells were fixed with 3.7% formaldehyde in PBS for 20 minutes at room temperature, washed (5×5 minutes) with phosphate buffer saline containing 0.1% Tween 20 and blocked with Odyssey blocking buffer (LI-COR, Lincoln, Nebr.) containing 0.1% TritonX100. Anti-H3K23ac specific antibody (Abcam ab177275) in Odyssey blocking buffer containing 0.1% Tween 20 was added and incubated for 16 hours at 4 degree Celsius. After washing (as above), a secondary antibody labelled with Alexa647 dye (LifeTechnologies) and Hoechst 33342 (1 μg/mL, SigmaAldrich) were added for 1 hour incubation. Plates were washed as previously and read on a PerkinElmer Phenix high content imaging platform. Using a Columbus image analysis pipeline, individual nuclei were located by Hoechst 33342 stain and the acetylation level was calculated from the Alexa647-related intensity in the same area.

KAT6A = KAT6A (Homo sapiens (Human), UniProt Q92794); experiment: KAT assay (SAMDI mass spectrometry), KAT6A; format: biochemical; conditions: KAT6a Ki at 1 μM AcCoA, 1 μM AcCoA;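 further: Baculovirus-expressed KAT6A acetylating histone H3 (1-21) peptide (2 µM), 30-60 min at room temperature, % product conversion fitted to Morrison equation for tight-binding competitive inhibitors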
KAT6B = KAT6B (Homo sapiens (Human), UniProt Q8WYB5); experiment: KAT assay (SAMDI mass spectrometry), KAT6B; format: biochemical; conditions: 1 μM AcCoA
Method: (§1) Prepare 10 mM stock solutions in 100% DMSO from solid material • 2. Serial dilute 10 mM, 1 mM or 0.1 mM compound stocks 3-fold in 100% DMSO for 11-point dose response
(§2) Prepare 1× assay buffer containing 10 mM Tris HCL pH 8.0, 2.5 mM NaCl, 0.5 mM EDTA, 0.005% BSG and 0.02% Tween-20 • 2. Dilute Histone peptide (CPC Scientific) and AcCoA (Sigma) together in assay buffer to 2×. • 3. Dilute KAT enzyme in assay buffer to 2×.
(§3) Enzyme reaction • 1. Final reaction conditions for each KAT assay in a 20 ul assay reaction volume: • i. KAT5 25 nM, 1 uM AcCoA, 2 uM H4 1-21 peptide, 30-minute reaction • ii. KAT6A 15 nM, 1 uM AcCoA, 2 uM H3 1-21 peptide, 45-minute reaction • iii. KAT6B 25 nM, 1 uM AcCoA, 2 uM H3 1-21 peptide, 60-minute reaction • iv. KAT7 12.5 nM, 1 uM AcCoA, 2 uM H3 1-21 peptide, 45-minute reaction • v. KAT8 15 nM, 1 uM AcCoA, 2 uM H3 1-21 peptide, 45-minute reaction • 2. Add 0.5 ul of diluted compound to the assay plate (384-well V-bottom polypropylene plates) or 0.5 ul of DMSO for control wells. • 3. Add 10 ul of 2× Histone peptide/2×AcCoA mix to the assay plate. • 4. Add 10 ul of 2× enzyme to the assay plate. • 5. Stop the reaction after the indicated time with the addition of 2 ul of 5% formic acid • 6. Each reaction was analyzed using self-assembled monolayer desorption/ionization time-of-flight mass spectrometry (Mrksich, Milan (2008) Mass Spectrometry of Self-Assembled Monolayers: A New Tool for Molecular Surface Science ACS Nano 2008 2 (1), 7-18; SAMDI Tech, Inc. (Chicago, Ill.)). • 7. Area under the curve (AUC) for both substrate and product peaks was determined for KAT5 at M.W. 2561 [Substrate+H]^+ and 2603 [Product+H]^+ with a +/−1 Da tolerance, respectively • 8. Area under the curve (AUC) for both substrate and product peaks was determined for KAT6a, KAT6B, KAT7 and KAT8 at M.W. 2723 [Substrate+H]^+ and 2765 [Product+H]^+ with a +/−1 Da tolerance, respectively. […] Percent conversion to product was calculated by: AUCProduct/(AUCsubstrate+AUCProduct).
(§4) IC50 values were determined by fitting the % conversion at each inhibitor concentration to the 4-parameter IC50 equation using Pfizer proprietary curve fitting software. • 2. Ki values were determined by fitting the % conversion at each inhibitor concentration to the Morrison equation for tightbinding competitive inhibitors using Pfizer proprietary curve fitting software.
(§5) KAT enzymes were expressed using a baculovirus expression system and purified at Pfizer, La Jolla. […] Acetyl coenzyme A was purchased from Sigma-Aldrich (St. Louis, Mo.). All other biochemical reagents were purchased from Sigma-Aldrich or ThermoFisher Scientific (Waltham, Mass.).
(§6) KAT assays were performed at room temperature in assay buffer containing 1 μM AcCoA, 2 μM histone peptide, 10 mM Tris HCL pH 8.0, 2.5 mM NaCl, 0.5 mM EDTA, 0.005% BSG and 0.02% Tween-20. 10 ul of 2× Histone peptide/AcCoA mix was added to a 384-well V-bottom polypropylene assay plate containing 0.5 ul of serially diluted test compound in 100% dimethyl sulfoxide (DMSO). To start the reaction, 10 ul of 2× enzyme solution was added to the assay plate. KAT assays were terminated after 30-60 minutes with the addition of 2 ul of 5% formic acid. All assays used histone H3 (1-21) peptide except for the KAT5 assay which used histone H4 (1-21) peptide. The final enzyme concentration for each KAT was as follows: KAT5, 25 nM; KAT6A, 15 nM; KAT6B, 25 nM; KAT7, 12.5 nM; KAT8 15 nM. Each reaction was analyzed using self-assembled monolayer desorption/ionization time-of-flight mass spectrometry (Mrksich, Milan (2008) Mass Spectrometry of Self-Assembled Monolayers: A New Tool for Molecular Surface Science ACS Nano 2008 2 (1), 7-18; SAMDI Tech, Inc. (Chicago, Ill.)).
(§7) Area under the curve (AUC) for both substrate and product peaks was determined for KAT5 at M.W. 2561 [Substrate+H]^+ and 2603 [Product+H]^+ with a +/−1 Da tolerance, respectively.

KAT5 = KAT5 (Homo sapiens (Human), UniProt Q92993); experiment: KAT assay (SAMDI mass spectrometry), KAT5; format: biochemical; conditions: 1 μM AcCoA;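 further: Baculovirus-expressed KAT5 acetylating a histone H4 peptide at room temperature, read as percent conversion to product, Ki from a Morrison tight-binding competitive fit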
Method: as §1, §2, §3, §4, §5, §6, §7

KAT7 = KAT7 (Homo sapiens (Human), UniProt O95251); experiment: KAT assay (SAMDI mass spectrometry), KAT7; format: biochemical; conditions: KAT7 Ki at 1 μM AcCoA;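 further: Baculovirus-expressed enzyme acetylating a histone peptide at room temperature, percent conversion from product and substrate peak areas, Ki from a Morrison tight-binding competitive fit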
Method: as §1, §2, §3, §4, §5, §6, §7

KAT8 = KAT8 (Homo sapiens (Human), UniProt Q9H7Z6); experiment: KAT assay (SAMDI mass spectrometry), KAT8; format: biochemical; conditions: 1 μM AcCoA
Method: as §1, §2, §3, §4, §5, §6, §7

[2] = test system: histone H3 Lysine 14 acetylation in U2OS cells; experiment: Histone H3 Lysine 14 Acetylation Biomarker Assay; format: cell-based; conditions: Homo sapiens, serum free medium, 24 hours incubation
Method: Compounds were tested for their ability to inhibit acetylation of the histone H3 Lysine 14 marker in the following assay:
The cell line U2OS was seeded at a density of 3,000 cells per well in 384-well optical quality tissue culture plates in RPMI medium supplemented with 10% foetal bovine serum and 10 mM Hepes. The cells were allowed to adhere for 24 hours under standard culture conditions (37 degree Celsius, 5% CO2). At the end of this period the cells were washed with serum free medium. […] After incubation for 24 hours, the cells were fixed with 4% formaldehyde in PBS for 15 minutes at room temperature, washed with phosphate buffer saline and blocked with blocking buffer containing 0.2% TritonX100 and 2% BSA. Anti-H3K14ac specific antibody (Cell Signalling Technologies) in blocking buffer was added and incubated overnight at 4 degree Celsius. After washing, a secondary antibody labelled with AlexaFluor 488 dye (ThermoFisher) and Hoechst 33342 (1 μg/mL, Life Technologies) were added for 2 hours incubation at room temperature. Plates were washed and read on a PerkinElmer Opera HCS high content imaging platform. Using a Columbus image analysis pipeline, individual nuclei were located by Hoechst 33342 stain and the acetylation level was calculated from the AlexaFluor 488-related intensity in the same area.

[3] = test system: histone H2A.Z Lysine 7 acetylation in U2OS cells; experiment: H2A.Z Lysine 7 Acetylation Biomarker Assay; format: cell-based; conditions: Homo sapiens, serum free medium, 24 hours incubation
Method: Compounds were tested for their ability to inhibit the histone H2A.Z Lysine 7 acetylation marker in the following assay: The cell line U2OS was seeded at a density of 3,000 cells per well in 384-well optical quality tissue culture plates in RPMI medium supplemented with 10% foetal bovine serum and 10 mM Hepes. The cells were allowed to adhere for 24 hours under standard culture conditions (37 degree Celsius, 5% CO2). At the end of this period the cells were washed with serum free medium. […] 2018, at 30 μM concentration. After incubation for 24 hours, the cells were fixed with 4% formaldehyde in PBS for 15 minutes at room temperature, washed with phosphate buffer saline and blocked with blocking buffer containing 0.2% TritonX100 and 2% BSA. Anti-H2A.ZK7ac specific antibody (Abcam) in blocking buffer was added and incubated overnight at 4 degree Celsius. After washing, a secondary antibody labelled with AlexaFluor 488 dye (ThermoFisher) and Hoechst 33342 (1 μg/mL, Life Technologies) were added for 2 hours incubation at room temperature. Plates were washed and read on a PerkinElmer Opera HCS high content imaging platform. Using a Columbus image analysis pipeline, individual nuclei were located by Hoechst 33342 stain and the acetylation level was calculated from the AlexaFluor 488-related intensity in the same area.

TIP60-KAT5 = TIP60-KAT5 (Homo sapiens (Human), UniProt Q92993); experiment: biochemical
MOZ-KAT6A = MOZ-KAT6A (Homo sapiens (Human), UniProt Q92794); experiment: biochemical
HBO1-KAT7 = HBO1-KAT7 (Homo sapiens (Human), UniProt O95251); experiment: biochemical
HBO1-KAT7, sequence (O95251 other isoform, or with tags, fused parts or gaps): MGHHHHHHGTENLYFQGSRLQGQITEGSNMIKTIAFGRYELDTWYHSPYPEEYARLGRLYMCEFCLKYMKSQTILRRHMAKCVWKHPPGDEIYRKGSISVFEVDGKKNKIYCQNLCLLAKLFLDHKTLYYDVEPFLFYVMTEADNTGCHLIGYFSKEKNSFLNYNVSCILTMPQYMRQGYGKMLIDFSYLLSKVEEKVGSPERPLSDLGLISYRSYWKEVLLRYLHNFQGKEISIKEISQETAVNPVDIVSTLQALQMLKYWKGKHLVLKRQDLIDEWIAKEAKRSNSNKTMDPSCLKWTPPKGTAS

TIP60-KAT5, sequence (Q92993 other isoform, or with tags, fused parts or gaps): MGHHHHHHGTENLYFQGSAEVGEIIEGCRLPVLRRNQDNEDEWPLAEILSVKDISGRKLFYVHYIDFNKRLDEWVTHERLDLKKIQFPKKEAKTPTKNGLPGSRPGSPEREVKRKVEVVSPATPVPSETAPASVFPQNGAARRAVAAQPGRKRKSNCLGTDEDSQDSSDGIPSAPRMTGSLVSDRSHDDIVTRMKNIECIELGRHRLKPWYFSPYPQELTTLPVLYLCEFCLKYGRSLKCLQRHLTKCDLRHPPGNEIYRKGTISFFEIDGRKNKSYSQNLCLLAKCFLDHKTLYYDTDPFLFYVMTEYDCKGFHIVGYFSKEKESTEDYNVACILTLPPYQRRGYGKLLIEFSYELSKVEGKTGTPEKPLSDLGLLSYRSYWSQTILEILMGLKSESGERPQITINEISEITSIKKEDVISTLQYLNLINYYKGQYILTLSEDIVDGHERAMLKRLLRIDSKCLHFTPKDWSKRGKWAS
MOZ-KAT6A, sequence (Q92794 other isoform, or with tags, fused parts or gaps): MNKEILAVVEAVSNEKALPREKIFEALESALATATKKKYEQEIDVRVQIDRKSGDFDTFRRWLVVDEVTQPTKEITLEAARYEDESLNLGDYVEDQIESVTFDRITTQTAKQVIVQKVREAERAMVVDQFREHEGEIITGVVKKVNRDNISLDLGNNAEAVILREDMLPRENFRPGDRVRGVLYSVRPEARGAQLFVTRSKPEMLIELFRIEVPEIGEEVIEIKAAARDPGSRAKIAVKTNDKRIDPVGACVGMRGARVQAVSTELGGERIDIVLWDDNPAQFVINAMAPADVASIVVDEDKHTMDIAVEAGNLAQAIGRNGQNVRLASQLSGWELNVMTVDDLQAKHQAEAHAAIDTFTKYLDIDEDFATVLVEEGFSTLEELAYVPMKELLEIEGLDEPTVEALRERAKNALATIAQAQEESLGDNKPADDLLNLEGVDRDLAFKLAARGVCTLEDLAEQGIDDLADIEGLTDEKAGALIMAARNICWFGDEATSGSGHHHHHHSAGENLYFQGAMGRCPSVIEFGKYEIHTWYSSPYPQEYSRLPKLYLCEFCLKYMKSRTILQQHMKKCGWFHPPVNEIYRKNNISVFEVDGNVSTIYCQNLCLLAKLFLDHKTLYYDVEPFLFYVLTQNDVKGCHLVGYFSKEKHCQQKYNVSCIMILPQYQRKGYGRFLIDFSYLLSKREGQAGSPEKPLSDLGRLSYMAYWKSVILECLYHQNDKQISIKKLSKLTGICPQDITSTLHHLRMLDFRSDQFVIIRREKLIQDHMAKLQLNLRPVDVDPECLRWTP
KAT7, sequence (O95251 whole entry): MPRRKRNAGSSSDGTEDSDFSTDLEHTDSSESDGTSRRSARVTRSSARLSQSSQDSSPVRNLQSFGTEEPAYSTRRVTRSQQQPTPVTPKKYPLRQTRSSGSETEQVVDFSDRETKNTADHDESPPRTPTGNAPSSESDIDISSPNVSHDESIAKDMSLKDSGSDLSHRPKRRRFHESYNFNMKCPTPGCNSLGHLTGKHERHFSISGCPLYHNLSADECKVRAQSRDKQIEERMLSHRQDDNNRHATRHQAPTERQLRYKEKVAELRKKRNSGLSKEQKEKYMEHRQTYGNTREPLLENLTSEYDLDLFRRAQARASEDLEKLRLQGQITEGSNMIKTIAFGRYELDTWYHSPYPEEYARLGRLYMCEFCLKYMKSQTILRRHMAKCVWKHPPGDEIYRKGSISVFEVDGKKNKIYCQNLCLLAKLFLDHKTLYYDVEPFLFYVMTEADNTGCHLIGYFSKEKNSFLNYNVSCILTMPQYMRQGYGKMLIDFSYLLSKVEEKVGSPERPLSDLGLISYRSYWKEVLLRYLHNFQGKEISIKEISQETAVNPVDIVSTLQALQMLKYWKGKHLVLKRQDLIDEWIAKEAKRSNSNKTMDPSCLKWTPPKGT
KAT5, sequence (Q92993 whole entry): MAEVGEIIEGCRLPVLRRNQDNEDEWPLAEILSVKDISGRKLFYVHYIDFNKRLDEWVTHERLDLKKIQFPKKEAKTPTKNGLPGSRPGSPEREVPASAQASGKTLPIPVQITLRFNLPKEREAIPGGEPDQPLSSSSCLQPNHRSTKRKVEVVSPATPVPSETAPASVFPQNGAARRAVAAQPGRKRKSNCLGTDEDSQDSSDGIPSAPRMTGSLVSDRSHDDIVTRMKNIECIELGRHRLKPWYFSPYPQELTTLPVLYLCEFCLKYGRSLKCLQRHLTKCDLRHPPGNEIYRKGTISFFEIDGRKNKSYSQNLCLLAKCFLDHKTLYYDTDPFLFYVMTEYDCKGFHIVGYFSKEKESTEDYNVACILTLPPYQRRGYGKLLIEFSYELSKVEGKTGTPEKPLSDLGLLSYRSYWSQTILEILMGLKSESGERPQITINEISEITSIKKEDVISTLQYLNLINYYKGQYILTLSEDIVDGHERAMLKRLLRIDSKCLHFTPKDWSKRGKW
KAT6A, sequence (Q92794 whole entry): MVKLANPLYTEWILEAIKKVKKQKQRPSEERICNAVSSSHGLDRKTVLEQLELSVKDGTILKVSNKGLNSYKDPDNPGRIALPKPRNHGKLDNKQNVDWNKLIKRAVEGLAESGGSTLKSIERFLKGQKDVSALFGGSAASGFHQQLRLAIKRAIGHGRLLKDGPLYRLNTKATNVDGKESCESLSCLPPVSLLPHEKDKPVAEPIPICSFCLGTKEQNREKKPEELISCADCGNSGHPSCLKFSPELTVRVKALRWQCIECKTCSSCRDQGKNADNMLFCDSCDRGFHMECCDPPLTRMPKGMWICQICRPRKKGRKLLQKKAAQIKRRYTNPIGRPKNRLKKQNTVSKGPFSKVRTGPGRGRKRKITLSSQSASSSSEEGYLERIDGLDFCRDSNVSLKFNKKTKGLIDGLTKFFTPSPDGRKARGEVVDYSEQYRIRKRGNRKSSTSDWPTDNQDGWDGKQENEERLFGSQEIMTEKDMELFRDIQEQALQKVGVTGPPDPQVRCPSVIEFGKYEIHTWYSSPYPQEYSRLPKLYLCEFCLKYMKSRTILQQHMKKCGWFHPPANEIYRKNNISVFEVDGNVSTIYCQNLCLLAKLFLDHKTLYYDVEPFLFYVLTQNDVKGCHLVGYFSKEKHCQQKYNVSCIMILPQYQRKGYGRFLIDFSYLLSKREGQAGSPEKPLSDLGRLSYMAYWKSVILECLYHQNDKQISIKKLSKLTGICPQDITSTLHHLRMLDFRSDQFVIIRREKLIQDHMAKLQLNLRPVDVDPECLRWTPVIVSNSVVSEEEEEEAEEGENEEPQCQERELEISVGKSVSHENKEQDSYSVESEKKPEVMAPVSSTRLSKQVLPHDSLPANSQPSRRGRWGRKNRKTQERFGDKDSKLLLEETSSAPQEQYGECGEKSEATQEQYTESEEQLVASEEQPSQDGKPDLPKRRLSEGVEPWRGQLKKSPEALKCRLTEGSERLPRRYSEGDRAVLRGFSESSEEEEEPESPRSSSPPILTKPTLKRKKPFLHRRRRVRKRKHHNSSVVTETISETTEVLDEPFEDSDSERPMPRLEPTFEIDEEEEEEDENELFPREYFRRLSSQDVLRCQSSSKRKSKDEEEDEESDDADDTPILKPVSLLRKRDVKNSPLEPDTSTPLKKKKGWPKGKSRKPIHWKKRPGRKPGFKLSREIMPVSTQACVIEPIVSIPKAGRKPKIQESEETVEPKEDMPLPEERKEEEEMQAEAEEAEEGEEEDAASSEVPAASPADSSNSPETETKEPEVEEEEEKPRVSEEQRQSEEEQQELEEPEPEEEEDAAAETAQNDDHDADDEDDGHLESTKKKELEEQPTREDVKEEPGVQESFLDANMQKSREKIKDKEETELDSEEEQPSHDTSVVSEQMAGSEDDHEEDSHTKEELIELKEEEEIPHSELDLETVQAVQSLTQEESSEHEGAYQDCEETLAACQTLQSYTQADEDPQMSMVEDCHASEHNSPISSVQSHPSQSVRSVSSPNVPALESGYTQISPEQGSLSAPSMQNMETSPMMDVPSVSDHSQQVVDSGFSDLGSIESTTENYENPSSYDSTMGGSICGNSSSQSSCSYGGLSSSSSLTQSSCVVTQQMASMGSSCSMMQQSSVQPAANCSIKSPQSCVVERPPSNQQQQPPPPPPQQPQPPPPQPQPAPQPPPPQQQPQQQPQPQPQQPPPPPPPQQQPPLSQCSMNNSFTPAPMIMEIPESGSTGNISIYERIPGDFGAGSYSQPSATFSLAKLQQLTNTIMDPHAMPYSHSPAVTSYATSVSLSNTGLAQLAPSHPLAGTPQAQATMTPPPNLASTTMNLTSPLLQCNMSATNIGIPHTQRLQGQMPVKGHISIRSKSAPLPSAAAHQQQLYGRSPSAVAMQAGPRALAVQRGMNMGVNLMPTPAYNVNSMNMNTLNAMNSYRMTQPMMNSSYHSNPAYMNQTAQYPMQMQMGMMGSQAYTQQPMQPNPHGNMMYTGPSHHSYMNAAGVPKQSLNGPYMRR

SMILES: COc1cccc(OC)c1S(=O)(=O)Nc1noc2cc(Cn3cccn3)cc(OC)c12 [Example 98, N-(6-((1H-pyrazol-1-yl)methyl)-4-methoxybenzo[d]isoxazol-3-yl)-2,6-dimethoxybenzenesulfonamide]
- pIC50 [1]: 9.22

SMILES: COc1cccc(OC)c1S(=O)(=O)Nc1noc2cc(Cn3cc(C)cn3)cc(OC)c12 [Example 100, 2,6-dimethoxy-N-(4-methoxy-6-((4-methyl-1H-pyrazol-1-yl)methyl)benzo[d]isoxazol-3-yl)benzenesulfonamide]
- pKi (KAT6A): 7.39
- pKi (KAT6B): 7.23
- pKi (KAT5): 5.21
- pKi (KAT7): 6.21
- pKi (KAT8): 5.31
- pIC50 [1]: 7.34
- pIC50 [2]: 5.87
- pIC50 [3]: 4.82
- pIC50 (TIP60-KAT5): 4.95
- pIC50 (MOZ-KAT6A): 7.52
- pIC50 (HBO1-KAT7): 6.47

SMILES: COc1cccc(OC)c1S(=O)(=O)Nc1noc2c(-c3cnn(C)c3)cc(C)cc12 [Example 102, 2,6-dimethoxy-N-(5-methyl-7-(1-methyl-1H-pyrazol-4-yl)benzo[d]isoxazol-3-yl)benzenesulfonamide]
- pIC50 [2]: 4.55
- pIC50 [3]: < 4.40
- pIC50 (TIP60-KAT5): < 3.90
- pIC50 (MOZ-KAT6A): 4.31
- pIC50 (HBO1-KAT7): 5.85
